Patent US20220009920A1 (GB005, Inc., priority 2020, published 2022)

Experiments:
Assay in all cases: Large panel kinase profiling
Type in all cases: biochemical
Conditions in all cases: 1 μM test article, 1 mM ATP
[1] = target: T1, STK10/LOK (Homo sapiens, UniProt O94804)
T1 construct: AssayQuant Technologies, Inc. (contract assay)
Outline: (§1)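 Steps: combine kinase, CSox-Sensor substrate, 1 mM ATP and 1 μM compound; seal and incubate at 30° C.; read top fluorescence kinetically each minute, Ex 360 nm/Em 485 nm.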

[2] = target: T2, NEK1 (Homo sapiens, UniProt Q96PY6)
T2 construct: AssayQuant Technologies, Inc. (assay service)
T2 sequence (Q96PY6 1-1258): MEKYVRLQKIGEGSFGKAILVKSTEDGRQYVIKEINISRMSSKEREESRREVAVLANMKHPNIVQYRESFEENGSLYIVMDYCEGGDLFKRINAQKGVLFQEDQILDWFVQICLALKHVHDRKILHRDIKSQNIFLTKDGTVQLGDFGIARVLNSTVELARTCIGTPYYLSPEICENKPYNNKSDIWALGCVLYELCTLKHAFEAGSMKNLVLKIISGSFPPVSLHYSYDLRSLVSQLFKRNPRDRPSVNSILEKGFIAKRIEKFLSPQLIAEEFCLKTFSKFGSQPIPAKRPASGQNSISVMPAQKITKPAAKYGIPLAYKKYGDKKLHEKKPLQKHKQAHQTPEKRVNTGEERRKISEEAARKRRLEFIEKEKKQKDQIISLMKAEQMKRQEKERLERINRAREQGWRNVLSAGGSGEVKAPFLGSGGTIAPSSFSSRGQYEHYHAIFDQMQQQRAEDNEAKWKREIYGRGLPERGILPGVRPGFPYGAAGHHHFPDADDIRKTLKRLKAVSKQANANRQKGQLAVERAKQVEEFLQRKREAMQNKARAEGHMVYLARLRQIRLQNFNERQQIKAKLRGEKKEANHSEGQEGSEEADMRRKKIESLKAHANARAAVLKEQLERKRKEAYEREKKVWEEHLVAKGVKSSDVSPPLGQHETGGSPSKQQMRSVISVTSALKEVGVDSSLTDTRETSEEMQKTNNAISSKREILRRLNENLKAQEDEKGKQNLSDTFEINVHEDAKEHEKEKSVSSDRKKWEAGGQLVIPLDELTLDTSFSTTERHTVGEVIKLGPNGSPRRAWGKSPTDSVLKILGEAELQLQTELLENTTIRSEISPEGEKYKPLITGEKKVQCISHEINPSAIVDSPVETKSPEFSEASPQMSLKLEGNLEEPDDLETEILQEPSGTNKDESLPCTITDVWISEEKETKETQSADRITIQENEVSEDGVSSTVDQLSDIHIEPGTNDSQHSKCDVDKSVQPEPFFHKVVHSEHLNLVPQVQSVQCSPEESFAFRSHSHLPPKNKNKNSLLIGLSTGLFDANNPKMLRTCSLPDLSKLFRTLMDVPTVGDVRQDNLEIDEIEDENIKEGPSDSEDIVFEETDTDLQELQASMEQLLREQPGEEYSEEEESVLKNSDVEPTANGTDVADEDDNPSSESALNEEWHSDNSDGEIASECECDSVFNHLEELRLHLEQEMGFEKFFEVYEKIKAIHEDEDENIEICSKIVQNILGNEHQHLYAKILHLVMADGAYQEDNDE
Outline: as §1

[3] = target: T3, BRSK1 (Homo sapiens, UniProt Q8TDC3)
T3 sequence (Q8TDC3 1-778): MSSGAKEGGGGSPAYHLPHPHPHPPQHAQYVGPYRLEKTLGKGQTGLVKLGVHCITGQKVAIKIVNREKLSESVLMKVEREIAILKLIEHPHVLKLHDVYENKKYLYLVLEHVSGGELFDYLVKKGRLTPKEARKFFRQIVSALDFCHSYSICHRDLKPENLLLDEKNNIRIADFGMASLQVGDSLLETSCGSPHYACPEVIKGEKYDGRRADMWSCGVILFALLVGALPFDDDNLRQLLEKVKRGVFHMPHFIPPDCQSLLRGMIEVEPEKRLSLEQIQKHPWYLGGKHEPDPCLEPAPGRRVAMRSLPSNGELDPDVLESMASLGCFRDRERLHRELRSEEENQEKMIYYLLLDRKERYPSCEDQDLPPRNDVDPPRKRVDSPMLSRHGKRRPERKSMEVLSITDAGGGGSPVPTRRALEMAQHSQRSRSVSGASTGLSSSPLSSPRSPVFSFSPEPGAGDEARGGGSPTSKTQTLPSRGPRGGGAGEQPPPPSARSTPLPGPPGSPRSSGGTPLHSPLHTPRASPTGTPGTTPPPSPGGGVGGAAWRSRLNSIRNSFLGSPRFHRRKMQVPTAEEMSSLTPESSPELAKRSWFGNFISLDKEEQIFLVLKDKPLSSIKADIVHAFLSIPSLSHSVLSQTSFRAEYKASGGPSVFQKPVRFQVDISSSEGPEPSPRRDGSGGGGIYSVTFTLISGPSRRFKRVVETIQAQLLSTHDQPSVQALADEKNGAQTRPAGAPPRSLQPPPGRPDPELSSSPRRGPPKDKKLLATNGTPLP
Outline: as §1

[4] = target: T4, CDK6/D1 (Homo sapiens, UniProt Q00534)
T4 construct: AssayQuant Technologies, Inc. (ran the panel)
Outline: as §1

[5] = target: T5, BTK (Homo sapiens, UniProt Q06187)
T5 construct: purchased Cama
Outline: as §1

[6] = target: T6, MARK2 (Homo sapiens, UniProt Q7KZI7)
T6 construct: AssayQuant Technologies, Inc. (assay service)
Outline: as §1

[7] = target: T7, JAK1(JH1) (Homo sapiens, UniProt P23458)
T7 construct: JAK1(JH1)
Outline: as §1

[8] = target: FGFR2 (Homo sapiens, UniProt P21802)
Outline: as §1

[9] = target: T8, MAPK9/JNK2 (Homo sapiens, UniProt P45984)
T8 construct: AssayQuant Technologies, Inc. (service provider)
Outline: as §1

[10] = target: T9, RPS6KA6/RSK4 (Homo sapiens, UniProt Q9UK32)
T9 construct: AssayQuant Technologies, Inc. (contract assay)
Outline: as §1

Chain of FGFR2 (P21802 22-821, species assumed): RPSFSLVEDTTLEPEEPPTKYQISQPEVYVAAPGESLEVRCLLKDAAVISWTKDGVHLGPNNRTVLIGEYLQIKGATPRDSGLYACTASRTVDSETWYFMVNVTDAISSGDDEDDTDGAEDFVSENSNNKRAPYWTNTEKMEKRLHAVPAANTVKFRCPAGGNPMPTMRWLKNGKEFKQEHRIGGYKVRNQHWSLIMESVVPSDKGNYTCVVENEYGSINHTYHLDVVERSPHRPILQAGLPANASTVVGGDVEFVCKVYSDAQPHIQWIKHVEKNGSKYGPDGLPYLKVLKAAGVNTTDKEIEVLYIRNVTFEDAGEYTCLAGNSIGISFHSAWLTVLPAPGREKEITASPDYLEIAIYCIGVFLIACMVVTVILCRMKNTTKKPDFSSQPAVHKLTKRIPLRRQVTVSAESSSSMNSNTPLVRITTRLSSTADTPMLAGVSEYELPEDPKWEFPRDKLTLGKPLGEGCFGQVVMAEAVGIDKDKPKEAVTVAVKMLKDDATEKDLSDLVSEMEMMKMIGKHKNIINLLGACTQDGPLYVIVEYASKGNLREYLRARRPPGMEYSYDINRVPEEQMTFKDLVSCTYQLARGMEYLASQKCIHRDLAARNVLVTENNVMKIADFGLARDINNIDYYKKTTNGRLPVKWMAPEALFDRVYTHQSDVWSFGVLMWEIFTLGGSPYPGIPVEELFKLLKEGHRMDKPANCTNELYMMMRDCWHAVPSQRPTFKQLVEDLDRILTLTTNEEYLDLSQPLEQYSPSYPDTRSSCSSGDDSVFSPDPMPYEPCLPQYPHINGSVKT
T1 sequence (O94804 whole entry): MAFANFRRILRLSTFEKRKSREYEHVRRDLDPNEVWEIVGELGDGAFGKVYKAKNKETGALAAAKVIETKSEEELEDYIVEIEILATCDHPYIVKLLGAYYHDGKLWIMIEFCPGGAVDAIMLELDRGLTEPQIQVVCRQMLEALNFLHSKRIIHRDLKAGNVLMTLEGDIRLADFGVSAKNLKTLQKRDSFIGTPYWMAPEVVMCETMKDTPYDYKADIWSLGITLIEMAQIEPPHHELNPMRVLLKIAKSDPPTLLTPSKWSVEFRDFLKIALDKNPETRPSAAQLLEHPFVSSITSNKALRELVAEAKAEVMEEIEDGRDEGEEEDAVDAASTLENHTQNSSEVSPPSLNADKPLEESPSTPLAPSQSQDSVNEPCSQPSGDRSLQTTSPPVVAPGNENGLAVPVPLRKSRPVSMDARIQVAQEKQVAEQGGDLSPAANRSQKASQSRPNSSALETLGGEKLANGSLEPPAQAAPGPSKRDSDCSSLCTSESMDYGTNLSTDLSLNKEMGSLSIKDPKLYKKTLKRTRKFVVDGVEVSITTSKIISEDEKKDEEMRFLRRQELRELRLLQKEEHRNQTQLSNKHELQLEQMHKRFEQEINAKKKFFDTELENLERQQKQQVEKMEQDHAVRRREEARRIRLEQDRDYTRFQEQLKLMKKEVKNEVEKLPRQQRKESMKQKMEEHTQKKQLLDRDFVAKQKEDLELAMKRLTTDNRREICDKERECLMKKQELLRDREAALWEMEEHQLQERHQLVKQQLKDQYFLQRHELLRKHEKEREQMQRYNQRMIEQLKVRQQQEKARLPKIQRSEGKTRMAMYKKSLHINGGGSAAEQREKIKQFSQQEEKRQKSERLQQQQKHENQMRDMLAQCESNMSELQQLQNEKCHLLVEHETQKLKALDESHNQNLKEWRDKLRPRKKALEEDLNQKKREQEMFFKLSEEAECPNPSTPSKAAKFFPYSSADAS
T7 sequence (P23458 875-1153 limits assumed, species assumed): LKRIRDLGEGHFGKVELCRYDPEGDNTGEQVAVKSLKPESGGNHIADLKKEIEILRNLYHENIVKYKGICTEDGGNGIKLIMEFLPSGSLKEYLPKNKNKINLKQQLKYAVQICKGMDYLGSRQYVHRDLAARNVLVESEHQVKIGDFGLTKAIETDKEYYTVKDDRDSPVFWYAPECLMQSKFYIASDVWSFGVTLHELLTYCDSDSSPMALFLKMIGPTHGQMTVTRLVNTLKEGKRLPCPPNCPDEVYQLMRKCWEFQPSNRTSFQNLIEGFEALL
T5 sequence (Q06187 whole entry): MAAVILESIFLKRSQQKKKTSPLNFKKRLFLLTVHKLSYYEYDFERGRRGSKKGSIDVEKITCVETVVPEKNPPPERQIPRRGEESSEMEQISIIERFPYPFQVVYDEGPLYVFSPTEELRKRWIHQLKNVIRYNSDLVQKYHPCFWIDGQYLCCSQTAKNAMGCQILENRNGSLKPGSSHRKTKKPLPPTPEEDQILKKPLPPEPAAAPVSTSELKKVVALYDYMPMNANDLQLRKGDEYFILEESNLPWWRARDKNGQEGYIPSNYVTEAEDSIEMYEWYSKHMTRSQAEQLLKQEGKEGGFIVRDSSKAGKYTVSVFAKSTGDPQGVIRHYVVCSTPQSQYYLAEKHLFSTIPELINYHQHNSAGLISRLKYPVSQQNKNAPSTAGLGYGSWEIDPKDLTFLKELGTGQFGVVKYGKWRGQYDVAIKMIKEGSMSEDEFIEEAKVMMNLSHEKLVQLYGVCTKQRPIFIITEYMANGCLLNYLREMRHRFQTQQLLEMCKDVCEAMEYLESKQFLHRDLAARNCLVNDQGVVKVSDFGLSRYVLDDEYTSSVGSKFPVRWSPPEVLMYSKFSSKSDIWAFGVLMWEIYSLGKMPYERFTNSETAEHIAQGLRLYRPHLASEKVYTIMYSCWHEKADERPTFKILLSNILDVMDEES
T8 sequence (P45984 whole entry): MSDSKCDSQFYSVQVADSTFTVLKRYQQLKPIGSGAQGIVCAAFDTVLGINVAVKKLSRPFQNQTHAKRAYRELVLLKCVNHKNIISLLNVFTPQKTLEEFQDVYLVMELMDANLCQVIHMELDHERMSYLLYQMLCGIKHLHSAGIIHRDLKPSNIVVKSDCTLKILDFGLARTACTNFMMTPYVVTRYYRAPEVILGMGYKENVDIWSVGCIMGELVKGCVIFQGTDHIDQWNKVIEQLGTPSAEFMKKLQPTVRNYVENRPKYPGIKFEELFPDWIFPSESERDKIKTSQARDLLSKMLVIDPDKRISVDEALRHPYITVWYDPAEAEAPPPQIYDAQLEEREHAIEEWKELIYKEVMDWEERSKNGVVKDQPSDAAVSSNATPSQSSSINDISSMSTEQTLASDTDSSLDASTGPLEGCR
T6 sequence (Q7KZI7 whole entry, species assumed): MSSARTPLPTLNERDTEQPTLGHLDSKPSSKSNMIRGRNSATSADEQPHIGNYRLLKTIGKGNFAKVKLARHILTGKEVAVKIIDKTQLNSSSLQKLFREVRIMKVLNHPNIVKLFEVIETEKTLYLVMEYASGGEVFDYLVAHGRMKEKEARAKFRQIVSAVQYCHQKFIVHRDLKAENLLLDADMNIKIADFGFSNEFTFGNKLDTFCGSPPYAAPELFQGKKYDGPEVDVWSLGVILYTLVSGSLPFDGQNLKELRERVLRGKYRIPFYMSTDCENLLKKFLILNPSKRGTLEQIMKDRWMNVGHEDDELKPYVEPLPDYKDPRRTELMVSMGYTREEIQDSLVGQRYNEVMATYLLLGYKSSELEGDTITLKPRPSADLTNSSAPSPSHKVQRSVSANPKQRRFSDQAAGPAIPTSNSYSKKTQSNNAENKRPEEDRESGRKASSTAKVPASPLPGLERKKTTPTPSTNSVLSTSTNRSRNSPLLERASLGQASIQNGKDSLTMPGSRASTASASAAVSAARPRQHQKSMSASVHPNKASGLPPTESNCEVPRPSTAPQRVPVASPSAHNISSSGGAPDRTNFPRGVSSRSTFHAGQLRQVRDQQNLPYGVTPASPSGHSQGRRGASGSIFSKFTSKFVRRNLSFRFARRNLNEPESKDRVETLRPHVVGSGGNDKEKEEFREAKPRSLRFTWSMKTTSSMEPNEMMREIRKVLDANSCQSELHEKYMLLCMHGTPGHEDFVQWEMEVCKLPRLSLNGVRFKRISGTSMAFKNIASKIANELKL
T4 sequence (Q00534 whole entry, species assumed): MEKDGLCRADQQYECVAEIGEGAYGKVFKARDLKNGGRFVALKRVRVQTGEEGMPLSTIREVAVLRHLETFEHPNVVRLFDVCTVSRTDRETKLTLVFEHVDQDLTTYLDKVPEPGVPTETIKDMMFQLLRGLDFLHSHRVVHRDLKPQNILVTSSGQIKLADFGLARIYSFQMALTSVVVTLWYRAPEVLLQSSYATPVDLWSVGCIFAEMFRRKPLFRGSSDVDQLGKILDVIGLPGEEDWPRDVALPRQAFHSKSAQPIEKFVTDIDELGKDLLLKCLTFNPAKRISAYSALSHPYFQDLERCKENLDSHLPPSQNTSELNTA
T4 sequence (P24385 whole entry partner, species assumed): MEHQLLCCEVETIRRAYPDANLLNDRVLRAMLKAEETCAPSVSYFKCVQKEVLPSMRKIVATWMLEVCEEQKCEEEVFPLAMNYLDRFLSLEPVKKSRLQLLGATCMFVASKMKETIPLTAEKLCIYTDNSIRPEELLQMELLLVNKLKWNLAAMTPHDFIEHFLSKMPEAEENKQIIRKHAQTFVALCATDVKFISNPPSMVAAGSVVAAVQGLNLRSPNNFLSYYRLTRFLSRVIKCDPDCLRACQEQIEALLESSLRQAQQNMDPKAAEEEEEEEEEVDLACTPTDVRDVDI

SMILES	inhibition at 1 µM [1] [%]	inhibition at 1 µM [2] [%]	inhibition at 1 µM [3] [%]	inhibition at 1 µM [4] [%]	inhibition at 1 µM [5] [%]	inhibition at 1 µM [6] [%]	inhibition at 1 µM [7] [%]	inhibition at 1 µM [8] [%]	inhibition at 1 µM [9] [%]	inhibition at 1 µM [10] [%]
C=CC(=O)N1CCCC(c2c(F)cc(C(N)=O)c3[nH]c4c(c23)CCCCC4)C1 (single isomer, unassigned) [Compound 5-6]	3.1	-3.1	-30.9	-5.8	92.8	11.8	1.3	17.7	-6.3	-5.8
C=CC(=O)N1CCC[C@@H](c2c(F)cc(C(N)=O)c3[nH]c4c(c23)CC2(CC4)CC2)C1 [Compound 6-2, (S)-5-(1-acryloylpiperidin-3-yl)-6-fluoro-1,2,4,9-tetrahydrospiro[carbazole-3,1′-cyclopropane]-8-carboxamide]	12.2	7.9	-13	-4.3	97.4	-33.3	25.6	-15.3	19.7	-14.8
C=CC(=O)N1CCC[C@@H](c2c(F)cc(C(N)=O)c3[nH]c4c(c23)CCC4)C1 [Compound 10-2, (S)-8-(1-acryloylpiperidin-3-yl)-7-fluoro-1,2,3,4-tetrahydrocyclo-penta[b]indole-5-carboxamide]	-8.7	11.8	10.1	12.8	93.8	-8.8	1.9	-3.5	3.8	0.3
